From article PMC5538626, “Structural and functional analysis of the GABARAP interaction motif (GIM)” (EMBO Reports, 2017)
Ends that are not written are not given here.

Target: T1, GABARAP R28K (Homo sapiens, UniProt O95166, R28K)
T1 construct: modified Ub-leader (ubiquitin fusion leader) (N); made in house; host or cells: E. coli NEB T7 Express
Assay: ITC titration of PLEKHM1-LIR peptide into GABARAP R28K mutant
Type: binding
Procedure: The chimeric constructs were expressed as a His‐tag fusion protein in E. coli BL21(DE3) cells. The cells were induced with 0.3 mM IPTG at OD600 0.6 for 16 h at 26°C. The cell pellets were lysed using mechanical sonication in lysis buffer (20 mM Tris–HCl pH 9.0, 100 mM NaCl, 10 mM imidazole, supplemented with 0.1% Triton X‐100). The proteins were purified using Ni‐NTA beads (GE Healthcare) and the His‐tag was cleaved using thrombin (Invitrogen) at room temperature for 16 h. The last step was gel filtration chromatography using a Superdex S200/300 GL column (GE Healthcare). The proteins were concentrated using spin concentrators (Vivaspin). For ITC and NMR studies, the non‐labelled and stable isotopes labelled LC3 and GABARAP proteins were obtained based on the protocols described elsewhere 30, 39. Here, E. coli NEB T7 Express culture transformed with corresponding plasmids were grown till OD600 nm = 1.0 and protein expression was induced with 0.2 mM IPTG. The cultures were incubated at 25°C for 8–12 h before cell harvesting. Isolation and purification procedures were similar to those reported in Ref. 22, 40. Before experiments, all proteins and peptides were equilibrated with a buffer containing 50 mM Na2HPO4, 100 mM NaCl at pH 7.0, and supplied with 5 mM protease inhibitor cocktail.
The protocol for preparation of non‐labelled and ^13C,^15N‐labelled PLEKHM1‐LIR peptide was slightly modified to achieve highest yield of the peptide. The 50 ml M9 culture was inoculated with NEB T7 cell transformed with pET39_Ub63‐PLEKHM1‐LIR plasmid and grown overnight at 37°. The collected cells were resuspended in 2 l of either LB or M9 media contained 1.5 g ^15N‐labelled NH4Cl and 3.0 g of ^13C‐labelled glucose. The cultures were grown at 37° till A(600 nm) = 0.9 and supplied with 1 mM of IPTG to induce Ub63‐PLEKHM1‐LIR overexpression (3 h at 37°). After that cells were harvested by centrifugation, re‐suspended in buffer contained 50 mM Tris–HCl pH = 7.9, 200 mM NaCl, 5% glycerol, 0.1 mg/ml DNase A and 4 mM protease inhibitor cocktail. After cell lysis by French press, debris was removed by centrifugation and clear supernatant was applied onto the column contained Ni‐NTA Sepharose equilibrated with the loading buffer (50 mM Tris–HCl pH = 7.9, 250 mM NaCl, 1% glycerol and 20 mM imidazole). Elution was performed with 400 mM imidazole in the same buffer. An aliquot of pure Ub63‐PLEKHM1‐LIR fractions was further purified by gel filtration on Superdex75 26 × 60 column for control ITC and analytical size exclusion chromatography experiments, remaining fusion protein was processed with the TEV‐protease and PLEKHM1‐LIR peptide was purified to 95% purity by reverse Ni‐NTA chromatography and followed gel filtration on Superdex75 26 × 60 column. Peak maximum of peptide was detected at […] (void volume 115 ml). Pure peptide was concentrated in Amicon concentrators with cut‐off of 3 kDa (> 95% retention).
All titration experiments were performed at 25°C using a VP‐ITC microcalorimeter (Malvern Instruments Ltd, UK). The ITC data were analysed with the ITC‐Origin 7.0 software with a “one‐site” binding model. The peptides at concentrations of 0.4 mM were titrated into 0.020 mM LC3 and GABARAP proteins in 26 steps. The protein and peptide concentrations were calculated from the UV absorption at 280 nm by NanoDrop spectrophotometer (Thermo Fisher Scientific, DE, USA).

T1 sequence (O95166 whole entry R28K, the tested form may be a part): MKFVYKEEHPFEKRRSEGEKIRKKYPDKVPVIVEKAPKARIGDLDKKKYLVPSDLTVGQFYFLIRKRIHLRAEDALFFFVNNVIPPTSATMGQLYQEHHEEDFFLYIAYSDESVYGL

In the case of GAMGPQQEDEWVNVQYPD [PLEKHM1‐LIR WT], the “-T*DS” value (25°C, pH 7.0, GABARAP R28K) is reported as “+2.00 kcal mol-1”, the “DG (ΔG)” value (25°C, pH 7.0, GABARAP R28K) is reported as -8.55 kcal/mol and the “DH (ΔH)” value (25°C, pH 7.0, GABARAP R28K) is reported as -10.55 ± 0.1 kcal/mol. For the same sequence, the “DS (ΔS)” value (25°C, pH 7.0, GABARAP R28K) was -6.71 cal mol-1 K-1, the KA (25°C, pH 7.0, GABARAP R28K) was 1.9±0.1 *10^6 M-1 and the N (25°C, pH 7.0, GABARAP R28K) was 1.05±0.01. For the same sequence, the “smaller favorable enthalpy vs wild type GABARAP” value (within experimental error) was 0.05 kcal/mol.
